Values after ≈ are worked out from the molar mass of the structure shown. Values joined by “and” are separate entries in the source; they are usually repeats but may differ in a detail not shown here. Equal entries are not always repeated. Where two headings read alike, the source gives them in different places.
Legend:
[1] = Study 2: concentrations of methadone in rat plasma, topical administration versus intravenous injection; assay type: in vivo
Description: The test article was administered intravenously (IV) through the tail vein to animals in Group A. The injection was performed slowly. A gauze pad (1×1 cm) Saturated with 0.2 mL of the appropriate test article was applied to the clipped site on the back of the animals in Groups 2 and 3. The gauze pad was secured by occlusive tape. The animal was wrapped in gauze, which was held in place with Zonas porous tape.
Blood Collection: Blood (0.5 mL) was collected into sodium heparin tubes at the appropriate time points. The samples were centrifuged at approximately 2800 rpm at 2-8 degrees Celsius for approximately 15 minutes. Plasma was collected.

[2] = Solubility of methadone in different solvents; assay type: physicochemical
Description: In this experiment, the solubility of methadone in a number of different solvents was evaluated. The solvents evaluated were mineral oil, N-methyl-2-pyrrolidone, diisopropyl adipate, DEET, PEG, Di (propylene glycol), dehydrated alcohol and water. […] The stability of the solutions was also evaluated.

[3] = organic solvent or mixture, thermodynamic from solid, diisopropyl adipate
[4] = organic solvent or mixture, DEET (97%)
[5] = organic solvent or mixture, Dehydrated Alcohol

CCC(=O)C(CC(C)N(C)C)(c1ccccc1)c1ccccc1 (centres unmarked) [Methadone, 6-dimethylamino-4,4-diphenyl-3-hepatone]
Irritation of rat skin by topical application ([1]; Study 2, topical methadone solutions on rat skin): lack of irritation | Concentrations of Methadone in Rat Plasma Samples ([1]; Study 2 Group A: I.V. tail vein, 0.25 mL Test Article 1 (0.5 mg/mL Methadone-Saline Solution), 2 min, individual rats A1-A3): 72.0 ng/mL and 63.1 ng/mL | Concentrations of Methadone in Rat Plasma Samples ([1]; Study 2 Group A: I.V. tail vein, 0.25 mL Test Article 1 (0.5 mg/mL Methadone-Saline Solution), 20 min, individual rats A1-A3): 49.2 ng/mL and 59.5 ng/mL | Concentrations of Methadone in Rat Plasma Samples ([1]; Study 2 Group A: I.V. tail vein, 0.25 mL Test Article 1 (0.5 mg/mL Methadone-Saline Solution), 40 min, individual rats A1-A3): 33.0 ng/mL and 35.2 ng/mL | Concentrations of Methadone in Rat Plasma Samples ([1]; Study 2 Group A: I.V. tail vein, 0.25 mL Test Article 1 (0.5 mg/mL Methadone-Saline Solution), 60 min, individual rats A1-A3): 19.7 ng/mL and 24.0 ng/mL | Concentrations of Methadone in Rat Plasma Samples ([1]; Study 2 Group A: I.V. tail vein, 0.25 mL Test Article 1 (0.5 mg/mL Methadone-Saline Solution), 120 min, individual rats A1-A3): 19.5 ng/mL and 13.1 ng/mL and 9.26 ng/mL | Concentrations of Methadone in Rat Plasma Samples ([1]; Study 2 Group A: I.V. tail vein, 0.25 mL Test Article 1 (0.5 mg/mL Methadone-Saline Solution), 480 min, individual rats A1-A3): 1.83 ng/mL and 1.96 ng/mL | Concentrations of Methadone in Rat Plasma Samples ([1]; Study 2 Group A: I.V. tail vein, 0.25 mL Test Article 1 (0.5 mg/mL Methadone-Saline Solution), 1440 min, individual rats A1-A3): 2.31 ng/mL and 0.923 ng/mL | Concentrations of Methadone in Rat Plasma Samples ([1]; Study 2 Group A: I.V. tail vein, 0.25 mL Test Article 1 (0.5 mg/mL Methadone-Saline Solution), 2160 min, individual rats A1-A3): 0.905 ng/mL and 0.944 ng/mL | Concentrations of Methadone in Rat Plasma Samples ([1]; Study 2 Group B: topical dorsal flank, 1 × 1 cm gauze pad with 0.2 mL Test Article 2 (Methadone-Diisopropyl Adipate Solution 23.9%), 15 min, individual rats B1-B3): 1.49 ng/mL and 1.70 ng/mL | Concentrations of Methadone in Rat Plasma Samples ([1]; Study 2 Group B: topical dorsal flank, 1 × 1 cm gauze pad with 0.2 mL Test Article 2 (Methadone-Diisopropyl Adipate Solution 23.9%), 45 min, individual rats B1-B3): 5.66 ng/mL and 3.96 ng/mL and 17.0 ng/mL | Concentrations of Methadone in Rat Plasma Samples ([1]; Study 2 Group B: topical dorsal flank, 1 × 1 cm gauze pad with 0.2 mL Test Article 2 (Methadone-Diisopropyl Adipate Solution 23.9%), 90 min, individual rats B1-B3): 14.3 ng/mL and 27.1 ng/mL | Concentrations of Methadone in Rat Plasma Samples ([1]; Study 2 Group B: topical dorsal flank, 1 × 1 cm gauze pad with 0.2 mL Test Article 2 (Methadone-Diisopropyl Adipate Solution 23.9%), 120 min, individual rats B1-B3): 41.4 ng/mL and 19.1 ng/mL and 44.9 ng/mL | Concentrations of Methadone in Rat Plasma Samples ([1]; Study 2 Group B: topical dorsal flank, 1 × 1 cm gauze pad with 0.2 mL Test Article 2 (Methadone-Diisopropyl Adipate Solution 23.9%), 480 min, individual rats B1-B3): 159 ng/mL and 46.7 ng/mL and 300 ng/mL | Concentrations of Methadone in Rat Plasma Samples ([1]; Study 2 Group B: topical dorsal flank, 1 × 1 cm gauze pad with 0.2 mL Test Article 2 (Methadone-Diisopropyl Adipate Solution 23.9%), 1440 min, individual rats B1-B3): 117 ng/mL and 168 ng/mL | Concentrations of Methadone in Rat Plasma Samples ([1]; Study 2 Group B: topical dorsal flank, 1 × 1 cm gauze pad with 0.2 mL Test Article 2 (Methadone-Diisopropyl Adipate Solution 23.9%), 2160 min, individual rats B1-B3): 82.7 ng/mL and 126 ng/mL and 59.4 ng/mL | Concentrations of Methadone in Rat Plasma Samples ([1]; Study 2 Group B: topical dorsal flank, 1 × 1 cm gauze pad with 0.2 mL Test Article 2 (Methadone-Diisopropyl Adipate Solution 23.9%), 2880 min, individual rats B1-B3): 49.4 ng/mL and 173 ng/mL and 34.0 ng/mL | Concentrations of Methadone in Rat Plasma Samples ([1]; Study 2 Group C: topical dorsal flank, 1 × 1 cm gauze pad with 0.2 mL Test Article 3 (Methadone-DEET Solution 10%), 15 min, individual rats C1-C3): 0.84 ng/mL and 1.72 ng/mL and 1.04 ng/mL | Concentrations of Methadone in Rat Plasma Samples ([1]; Study 2 Group C: topical dorsal flank, 1 × 1 cm gauze pad with 0.2 mL Test Article 3 (Methadone-DEET Solution 10%), 45 min, individual rats C1-C3): 2.42 ng/mL and 1.71 ng/mL | Concentrations of Methadone in Rat Plasma Samples ([1]; Study 2 Group C: topical dorsal flank, 1 × 1 cm gauze pad with 0.2 mL Test Article 3 (Methadone-DEET Solution 10%), 90 min, individual rats C1-C3): 4.7 ng/mL and 2.89 ng/mL | Concentrations of Methadone in Rat Plasma Samples ([1]; Study 2 Group C: topical dorsal flank, 1 × 1 cm gauze pad with 0.2 mL Test Article 3 (Methadone-DEET Solution 10%), 120 min, individual rats C1-C3): 3.84 ng/mL and 7.73 ng/mL and 3.39 ng/mL | Concentrations of Methadone in Rat Plasma Samples ([1]; Study 2 Group C: topical dorsal flank, 1 × 1 cm gauze pad with 0.2 mL Test Article 3 (Methadone-DEET Solution 10%), 480 min, individual rats C1-C3): 18.0 ng/mL and 29.6 ng/mL and 14.3 ng/mL | Concentrations of Methadone in Rat Plasma Samples ([1]; Study 2 Group C: topical dorsal flank, 1 × 1 cm gauze pad with 0.2 mL Test Article 3 (Methadone-DEET Solution 10%), 1440 min, individual rats C1-C3): 20.0 ng/mL and 20.6 ng/mL | Concentrations of Methadone in Rat Plasma Samples ([1]; Study 2 Group C: topical dorsal flank, 1 × 1 cm gauze pad with 0.2 mL Test Article 3 (Methadone-DEET Solution 10%), 2160 min, individual rats C1-C3): 17.3 ng/mL and 35.1 ng/mL and 19.0 ng/mL | Concentrations of Methadone in Rat Plasma Samples ([1]; Study 2 Group C: topical dorsal flank, 1 × 1 cm gauze pad with 0.2 mL Test Article 3 (Methadone-DEET Solution 10%), 2880 min, individual rats C1-C3): 11.1 ng/mL and 23.7 ng/mL and 12.6 ng/mL | concentration at 45 min ([1]; rat, in vivo, 0.2 mL of 10% methadone solution, Study 2 Group C: topical dorsal flank, 1 × 1 cm gauze pad with 0.2 mL Test Article 3 (Methadone-DEET Solution 10%), 45 min, individual rats C1-C3, read-out: Concentrations of Methadone in Rat Plasma Samples): 2.08 ng/mL | concentration at 90 min ([1]; rat, in vivo, 0.2 mL of 10% methadone solution, Study 2 Group C: topical dorsal flank, 1 × 1 cm gauze pad with 0.2 mL Test Article 3 (Methadone-DEET Solution 10%), 90 min, individual rats C1-C3, read-out: Concentrations of Methadone in Rat Plasma Samples): 3.17 ng/mL | concentration at 1440 min ([1]; rat, in vivo, 0.2 mL of 10% methadone solution, Study 2 Group C: topical dorsal flank, 1 × 1 cm gauze pad with 0.2 mL Test Article 3 (Methadone-DEET Solution 10%), 1440 min, individual rats C1-C3, read-out: Concentrations of Methadone in Rat Plasma Samples): 27.8 ng/mL | concentration at 15 min ([1]; rat, in vivo, 0.2 mL of 23.9% methadone solution, Study 2 Group B: topical dorsal flank, 1 × 1 cm gauze pad with 0.2 mL Test Article 2 (Methadone-Diisopropyl Adipate Solution 23.9%), 15 min, individual rats B1-B3, read-out: Concentrations of Methadone in Rat Plasma Samples): 2.75 ng/mL | concentration at 90 min ([1]; rat, in vivo, 0.2 mL of 23.9% methadone solution, Study 2 Group B: topical dorsal flank, 1 × 1 cm gauze pad with 0.2 mL Test Article 2 (Methadone-Diisopropyl Adipate Solution 23.9%), 90 min, individual rats B1-B3, read-out: Concentrations of Methadone in Rat Plasma Samples): 24.8 ng/mL | concentration at 1440 min ([1]; rat, in vivo, 0.2 mL of 23.9% methadone solution, Study 2 Group B: topical dorsal flank, 1 × 1 cm gauze pad with 0.2 mL Test Article 2 (Methadone-Diisopropyl Adipate Solution 23.9%), 1440 min, individual rats B1-B3, read-out: Concentrations of Methadone in Rat Plasma Samples): 116 ng/mL | concentration at 2 min ([1]; rat, in vivo, iv, 0.125 mg, Study 2 Group A: I.V. tail vein, 0.25 mL Test Article 1 (0.5 mg/mL Methadone-Saline Solution), 2 min, individual rats A1-A3, read-out: Concentrations of Methadone in Rat Plasma Samples): 36.3 ng/mL | concentration at 20 min ([1]; rat, in vivo, iv, 0.125 mg, Study 2 Group A: I.V. tail vein, 0.25 mL Test Article 1 (0.5 mg/mL Methadone-Saline Solution), 20 min, individual rats A1-A3, read-out: Concentrations of Methadone in Rat Plasma Samples): 55.9 ng/mL | concentration at 40 min ([1]; rat, in vivo, iv, 0.125 mg, Study 2 Group A: I.V. tail vein, 0.25 mL Test Article 1 (0.5 mg/mL Methadone-Saline Solution), 40 min, individual rats A1-A3, read-out: Concentrations of Methadone in Rat Plasma Samples): 35.4 ng/mL | concentration at 60 min ([1]; rat, in vivo, iv, 0.125 mg, Study 2 Group A: I.V. tail vein, 0.25 mL Test Article 1 (0.5 mg/mL Methadone-Saline Solution), 60 min, individual rats A1-A3, read-out: Concentrations of Methadone in Rat Plasma Samples): 28.1 ng/mL | concentration at 480 min ([1]; rat, in vivo, iv, 0.125 mg, Study 2 Group A: I.V. tail vein, 0.25 mL Test Article 1 (0.5 mg/mL Methadone-Saline Solution), 480 min, individual rats A1-A3, read-out: Concentrations of Methadone in Rat Plasma Samples): 1.54 ng/mL | concentration at 2160 min ([1]; rat, in vivo, iv, 0.125 mg, Study 2 Group A: I.V. tail vein, 0.25 mL Test Article 1 (0.5 mg/mL Methadone-Saline Solution), 2160 min, individual rats A1-A3, read-out: Concentrations of Methadone in Rat Plasma Samples): 0.796 ng/mL | solubility at 3 h ([2]; oil or lipid, Mineral oil): 39.9 mg/mL (≈ 129 mM) | solubility at 6 h ([2]; oil or lipid, Mineral oil): 37.2 mg/mL (≈ 120 mM) | solubility at 24 h ([2]; oil or lipid, Mineral oil): 40.4 mg/mL (≈ 131 mM) | solubility at 48 h ([2]; oil or lipid, Mineral oil): 40.4 mg/mL (≈ 131 mM) | solubility at 3 h [2, 3]: 343 mg/mL (≈ 1110 mM) | solubility at 6 h [2, 3]: 345 mg/mL (≈ 1110 mM) | solubility at 48 h [2, 3]: 324 mg/mL (≈ 1050 mM) | solubility at 3 h [2, 4]: 124 mg/mL (≈ 401 mM) | solubility at 6 h [2, 4]: 125 mg/mL (≈ 404 mM) | solubility at 24 h [2, 4]: 137 mg/mL (≈ 443 mM) | solubility at 48 h [2, 4]: 132 mg/mL (≈ 427 mM) | solubility at 3 h [2, 5]: 114 mg/mL (≈ 368 mM) | solubility at 6 h [2, 5]: 113 mg/mL (≈ 365 mM)

Source: patent publication US20050244486A1, “Topical methadone compositions and methods for using the same” (priority 2004, published 2005)
